A word on the IC50: it is the concentration needed to halve the response being measured.

The source made the active and inactive calls. The calls are words filed in the database; no cut-off is given here.

Series [1] in a line: HIV1 reverse transcriptase picogreen fluorescence assay (enzymatic). The arrangement: species or system Human immunodeficiency virus 1.
Series [2] is described as follows: HIV viral replication assay (ELISA). Type of series: cell-based. The settings on record: Human immunodeficiency virus 1, C8166. (An ELISA detects its analyte on a solid surface through an enzyme-linked reagent.)
Series [3] in a line: HIV 1 luciferase assay. Type of series: cell-based, Human immunodeficiency virus 1. As to conditions: c8166.
For series [4], the target named is 5-hydroxytryptamine receptor 1B (Homo sapiens) (UniProt P28222). In words: 5HT1B(H) Eurofins SafetyScreen44 (BI). As to conditions: filed as antagonist, Compound concentration 10.0 uM.
The target in series [5] is Cannabinoid receptor 1 (Homo sapiens) (UniProt P21554). As to the kind of experiment: CB1(HU)_AGON Eurofins SafetyScreen44 (BI). As to conditions: filed as agonist; Compound concentration 10.0 uM.
Series [6] has as its target Prostaglandin G/H synthase 1 (Homo sapiens) (UniProt P23219). As to the kind of experiment: COX-1 Eurofins SafetyScreen44 (BI). The settings on record: Compound concentration 10.0 uM.
For series [7], the target named is Prostaglandin G/H synthase 2 (Homo sapiens) (UniProt P35354). As to the kind of experiment: COX-2 Eurofins SafetyScreen44 (BI). The settings on record: Compound concentration 10.0 uM.
The target in series [8] is Kappa-type opioid receptor (Homo sapiens) (UniProt P41145). In words: KAPPA(KOP)_HU Eurofins SafetyScreen44 (BI). As to conditions: Compound concentration 10.0 uM.
Series [9] has as its target 5-hydroxytryptamine receptor 1A (Homo sapiens) (UniProt P08908). As to the kind of experiment: 5HT1A/H Eurofins SafetyScreen44 (BI). The settings on record: Compound concentration 10.0 uM.
In series [10] the target is 5-hydroxytryptamine receptor 2A (Homo sapiens) (UniProt P28223). As to the kind of experiment: 5HT2AH_AGON Eurofins SafetyScreen44 (BI). The settings on record: filed as agonist, Compound concentration 10.0 uM.
The target in series [11] is 5-hydroxytryptamine receptor 2B (Homo sapiens) (UniProt P41595). As to the kind of experiment: 5HT2B/H AG Eurofins SafetyScreen44 (BI). The settings on record: filed as agonist, Compound concentration 10.0 uM.
Series [12] deals with 5-hydroxytryptamine receptor 3A (Homo sapiens) (UniProt P46098). As to the kind of experiment: 5HT3/H Eurofins SafetyScreen44 (BI). As to conditions: Compound concentration 10.0 uM.
In series [13] the target is Adenosine receptor A2a (Homo sapiens) (UniProt P29274). As to the kind of experiment: A2A/H Eurofins SafetyScreen44 (BI). As to conditions: filed as antagonist, Compound concentration 10.0 uM.
Series [14] concerns the target Angiotensin-converting enzyme (Homo sapiens) (UniProt P12821). In words: ACE(HU_AMTCH400) Eurofins SafetyScreen44 (BI). As to conditions: Compound concentration 10.0 uM.
The target in series [15] is Alpha-1A adrenergic receptor (Homo sapiens) (UniProt P35348). In words: ALPHA1AH_ANTAG Eurofins SafetyScreen44 (BI). As to conditions: filed as antagonist, Compound concentration 10.0 uM.
Series [16] addresses Alpha-2A adrenergic receptor (Homo sapiens) (UniProt P08913). As to the kind of experiment: ALPHA2A/HU Eurofins SafetyScreen44 (BI). As to conditions: Compound concentration 10.0 uM.
In series [17] the target is Androgen receptor (Homo sapiens) (UniProt P10275). As to the kind of experiment: ANDROGEN/H Eurofins SafetyScreen44 (BI). The settings on record: Compound concentration 10.0 uM.
Series [18] deals with Beta-1 adrenergic receptor (Homo sapiens) (UniProt P08588). As to the kind of experiment: BETA1/HUM Eurofins SafetyScreen44 (BI). The settings on record: Compound concentration 10.0 uM.
In series [19] the target is Beta-2 adrenergic receptor (Homo sapiens) (UniProt P07550). As to the kind of experiment: BETA2/HUM Eurofins SafetyScreen44 (BI). The settings on record: filed as antagonist, Compound concentration 10.0 uM.
The target in series [20] is Gamma-aminobutyric acid receptor subunit alpha-1 (Rattus norvegicus) (UniProt P62813). As to the kind of experiment: BZD/CENTR/R Eurofins SafetyScreen44 (BI). As to conditions: Compound concentration 10.0 uM.
For series [21], the target named is L-type Ca2+ channel (dihydropyridine site), Cav1.2 alpha-1C (Rattus norvegicus, UniProt P22002). As to the kind of experiment: CA+/DHPSI/R Eurofins SafetyScreen44 (BI). The arrangement: mode of action inhibitor. As to conditions: rat brain, probe [3H](+)PN200-110, compound concentration 10 uM, read-out: % Ctrl.
Series [22] deals with Cannabinoid receptor 2 (Homo sapiens) (UniProt P34972). As to the kind of experiment: CB2/PERIPH/H Eurofins SafetyScreen44 (BI). The settings on record: Compound concentration 10.0 uM.
Series [23] addresses Cholecystokinin receptor type A (Homo sapiens) (UniProt P32238). In words: CCKA/H Eurofins SafetyScreen44 (BI). The settings on record: Compound concentration 10.0 uM.
Series [24] addresses D(1A) dopamine receptor (Homo sapiens) (UniProt P21728). As to the kind of experiment: D1/H Eurofins SafetyScreen44 (BI). As to conditions: filed as antagonist, Compound concentration 10.0 uM.
Series [25] concerns the target D(2) dopamine receptor (Homo sapiens) (UniProt P14416). In words: D2SH_AGON Eurofins SafetyScreen44 (BI). As to conditions: filed as agonist, Compound concentration 10.0 uM.
Series [26] addresses Sodium-dependent dopamine transporter (Homo sapiens) (UniProt Q01959). As to the kind of experiment: DATRANS/HUM Eurofins SafetyScreen44 (BI). As to conditions: Compound concentration 10.0 uM.
Series [27] concerns the target Delta-type opioid receptor (Homo sapiens) (UniProt P41143). As to the kind of experiment: DELTA2/H Eurofins SafetyScreen44 (BI). The settings on record: Compound concentration 10.0 uM.
For series [28], the target named is Endothelin-1 receptor (Homo sapiens) (UniProt P25101). As to the kind of experiment: ETA/H Eurofins SafetyScreen44 (BI). As to conditions: Compound concentration 10.0 uM.
Series [29] concerns the target Glucocorticoid receptor (Homo sapiens) (UniProt P04150). In words: GCORTICOID/H Eurofins SafetyScreen44 (BI). The settings on record: Compound concentration 10.0 uM.
Series [30] concerns the target Histamine H1 receptor (Homo sapiens) (UniProt P35367). As to the kind of experiment: H1/PYRIL/HS Eurofins SafetyScreen44 (BI). As to conditions: Compound concentration 10.0 uM.
In series [31] the target is Histamine H2 receptor (Homo sapiens) (UniProt P25021). In words: H2/APT/HS Eurofins SafetyScreen44 (BI). The settings on record: filed as antagonist, Compound concentration 10.0 uM.
In the next series the target is hERG (KCNH2) (Homo sapiens, UniProt Q12809). In words: HERG_DOFETILIDE Eurofins SafetyScreen44 (BI). The arrangement: mode of action inhibitor. As to conditions: probe [3H] dofetilide, compound concentration 10 uM, read-out: % Ctrl.
Series [32] has as its target Potassium voltage-gated channel subfamily V member 1 (Rattus norvegicus) (UniProt P97557). In words: K+/VOLT/RA Eurofins SafetyScreen44 (BI). The settings on record: Compound concentration 10.0 uM.
Series [33] deals with Tyrosine-protein kinase Lck (Homo sapiens) (UniProt P06239). As to the kind of experiment: LCK_CE Eurofins SafetyScreen44 (BI). As to conditions: Compound concentration 10.0 uM.
Series [34] addresses Muscarinic acetylcholine receptor M1 (Homo sapiens) (UniProt P11229). In words: M1/H Eurofins SafetyScreen44 (BI). The settings on record: Compound concentration 10.0 uM.
The target in series [35] is Muscarinic acetylcholine receptor M2 (Homo sapiens) (UniProt P08172). In words: M2/H Eurofins SafetyScreen44 (BI). As to conditions: filed as antagonist, Compound concentration 10.0 uM.
Series [36] concerns the target Muscarinic acetylcholine receptor M3 (Homo sapiens) (UniProt P20309). In words: M3/H Eurofins SafetyScreen44 (BI). The settings on record: Compound concentration 10.0 uM.
The target of another series is MAO-A (Rattus norvegicus, UniProt P21396). In words: MAO-A_ANTAG Eurofins SafetyScreen44 (BI). The arrangement: mode of action antagonist; scale not given: the % may be the effect or the level left. The settings on record: compound concentration 10 uM, read-out: % Ctrl.
Series [37] addresses Mu-type opioid receptor (Homo sapiens) (UniProt P35372). As to the kind of experiment: MU/H Eurofins SafetyScreen44 (BI). As to conditions: Compound concentration 10.0 uM.
Series [38] deals with Sodium-dependent noradrenaline transporter (Homo sapiens) (UniProt P23975). As to the kind of experiment: NEUP/H Eurofins SafetyScreen44 (BI). The settings on record: Compound concentration 10.0 uM.
The target of series [39] is Glutamate receptor ionotropic, NMDA 2A (Rattus norvegicus) (UniProt Q00959). As to the kind of experiment: NMDA/R Eurofins SafetyScreen44 (BI). The settings on record: Compound concentration 10.0 uM.
The target in series [40] is Neuronal acetylcholine receptor; alpha4/beta2 (Homo sapiens) (UniProt P17787+P43681). In words: N_NEURO_A4B2 Eurofins SafetyScreen44 (BI). Type of series: protein-complex assay. As to conditions: filed as agonist, Compound concentration 10.0 uM.
The target in series [41] is cGMP-inhibited 3',5'-cyclic phosphodiesterase 3A (Homo sapiens) (UniProt Q14432). As to the kind of experiment: PDE3A Eurofins SafetyScreen44 (BI). The settings on record: Compound concentration 10.0 uM.
Series [42] deals with 3',5'-cyclic-AMP phosphodiesterase 4D (Homo sapiens) (UniProt Q08499). As to the kind of experiment: PDE4D2 Eurofins SafetyScreen44 (BI). As to conditions: Compound concentration 10.0 uM.
The target of series [43] is Sodium-dependent serotonin transporter (Homo sapiens) (UniProt P31645). In words: SLC6A4/H Eurofins SafetyScreen44 (BI). The settings on record: filed as antagonist, Compound concentration 10.0 uM.
The target of series [44] is Vasopressin V1a receptor (Homo sapiens) (UniProt P37288). As to the kind of experiment: V1A/HUM Eurofins SafetyScreen44 (BI). The settings on record: Compound concentration 10.0 uM.

Chain of Androgen receptor (Homo sapiens) (P10275 whole entry): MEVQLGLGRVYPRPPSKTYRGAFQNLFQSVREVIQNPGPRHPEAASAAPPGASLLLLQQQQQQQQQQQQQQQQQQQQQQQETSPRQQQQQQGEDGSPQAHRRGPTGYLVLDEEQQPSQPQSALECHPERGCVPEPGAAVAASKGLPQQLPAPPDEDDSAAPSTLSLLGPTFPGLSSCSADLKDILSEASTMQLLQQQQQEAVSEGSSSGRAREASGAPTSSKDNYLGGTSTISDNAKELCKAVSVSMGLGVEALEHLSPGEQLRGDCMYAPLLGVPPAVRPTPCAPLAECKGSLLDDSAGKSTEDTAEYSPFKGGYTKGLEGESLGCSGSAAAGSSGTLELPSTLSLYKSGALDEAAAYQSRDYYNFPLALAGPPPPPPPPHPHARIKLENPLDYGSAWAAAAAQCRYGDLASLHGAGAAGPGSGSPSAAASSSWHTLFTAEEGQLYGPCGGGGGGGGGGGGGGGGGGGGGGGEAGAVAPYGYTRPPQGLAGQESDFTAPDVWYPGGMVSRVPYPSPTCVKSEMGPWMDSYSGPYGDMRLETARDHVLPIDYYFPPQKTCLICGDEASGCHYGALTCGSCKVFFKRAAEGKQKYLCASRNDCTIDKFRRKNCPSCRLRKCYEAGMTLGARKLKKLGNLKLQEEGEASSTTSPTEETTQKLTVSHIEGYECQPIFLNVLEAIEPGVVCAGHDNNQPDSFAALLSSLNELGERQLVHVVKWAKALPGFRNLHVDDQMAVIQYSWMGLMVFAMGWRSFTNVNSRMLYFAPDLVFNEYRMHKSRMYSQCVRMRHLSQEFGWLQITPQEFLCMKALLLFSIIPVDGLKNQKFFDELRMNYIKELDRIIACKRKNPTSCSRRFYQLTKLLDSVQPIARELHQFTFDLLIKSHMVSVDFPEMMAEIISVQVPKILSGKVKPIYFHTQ
Chain of Sodium-dependent dopamine transporter (Homo sapiens) (Q01959 whole entry): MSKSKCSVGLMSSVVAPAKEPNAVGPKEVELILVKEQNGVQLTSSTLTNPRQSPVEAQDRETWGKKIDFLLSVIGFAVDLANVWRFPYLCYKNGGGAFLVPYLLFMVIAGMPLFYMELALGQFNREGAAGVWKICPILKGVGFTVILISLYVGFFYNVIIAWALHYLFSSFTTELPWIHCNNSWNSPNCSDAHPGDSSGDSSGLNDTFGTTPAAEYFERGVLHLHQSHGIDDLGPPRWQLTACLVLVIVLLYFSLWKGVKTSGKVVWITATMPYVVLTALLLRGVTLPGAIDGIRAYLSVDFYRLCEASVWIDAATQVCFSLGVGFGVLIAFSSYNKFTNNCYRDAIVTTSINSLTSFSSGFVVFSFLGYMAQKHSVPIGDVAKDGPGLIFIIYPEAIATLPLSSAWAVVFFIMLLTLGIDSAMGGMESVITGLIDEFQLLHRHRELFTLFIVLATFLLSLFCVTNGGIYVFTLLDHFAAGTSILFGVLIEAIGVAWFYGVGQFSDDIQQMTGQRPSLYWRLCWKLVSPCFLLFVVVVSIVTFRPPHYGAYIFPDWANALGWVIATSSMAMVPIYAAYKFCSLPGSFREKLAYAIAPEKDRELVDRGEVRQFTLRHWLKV
Chain of Angiotensin-converting enzyme (Homo sapiens) (P12821 whole entry): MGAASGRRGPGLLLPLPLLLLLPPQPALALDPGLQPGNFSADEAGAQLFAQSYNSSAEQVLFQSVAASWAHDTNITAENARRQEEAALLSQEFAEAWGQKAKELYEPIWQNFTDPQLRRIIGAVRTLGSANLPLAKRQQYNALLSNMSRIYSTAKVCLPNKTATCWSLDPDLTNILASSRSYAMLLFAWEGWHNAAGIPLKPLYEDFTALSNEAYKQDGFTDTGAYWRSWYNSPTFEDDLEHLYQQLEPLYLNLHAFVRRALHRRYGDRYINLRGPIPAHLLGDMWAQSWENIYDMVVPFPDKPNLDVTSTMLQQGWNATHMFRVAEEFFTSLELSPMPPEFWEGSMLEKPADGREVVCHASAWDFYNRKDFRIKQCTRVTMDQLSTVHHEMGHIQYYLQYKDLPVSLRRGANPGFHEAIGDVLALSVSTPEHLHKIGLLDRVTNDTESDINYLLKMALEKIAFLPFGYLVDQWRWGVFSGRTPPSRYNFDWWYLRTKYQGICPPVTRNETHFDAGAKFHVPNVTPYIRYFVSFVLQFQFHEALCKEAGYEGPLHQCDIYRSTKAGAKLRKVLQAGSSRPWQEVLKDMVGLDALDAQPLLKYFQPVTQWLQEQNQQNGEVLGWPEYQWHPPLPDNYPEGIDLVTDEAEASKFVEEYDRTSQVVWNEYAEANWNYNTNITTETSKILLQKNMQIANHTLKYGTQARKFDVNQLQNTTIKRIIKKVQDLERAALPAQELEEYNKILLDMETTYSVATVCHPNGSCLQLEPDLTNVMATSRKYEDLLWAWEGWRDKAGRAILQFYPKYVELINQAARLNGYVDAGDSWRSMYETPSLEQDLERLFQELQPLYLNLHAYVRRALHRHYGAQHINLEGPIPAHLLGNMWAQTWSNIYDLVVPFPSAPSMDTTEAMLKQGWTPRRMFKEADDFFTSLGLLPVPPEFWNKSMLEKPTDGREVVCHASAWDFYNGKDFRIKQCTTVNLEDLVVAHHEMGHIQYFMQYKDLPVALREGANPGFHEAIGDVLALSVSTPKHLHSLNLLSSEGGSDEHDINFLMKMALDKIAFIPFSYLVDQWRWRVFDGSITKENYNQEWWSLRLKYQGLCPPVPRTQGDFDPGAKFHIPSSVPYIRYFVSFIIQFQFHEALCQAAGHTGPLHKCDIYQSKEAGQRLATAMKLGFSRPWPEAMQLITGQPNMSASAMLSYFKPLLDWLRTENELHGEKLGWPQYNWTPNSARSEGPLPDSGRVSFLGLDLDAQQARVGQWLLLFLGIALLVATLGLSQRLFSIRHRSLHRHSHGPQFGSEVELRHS
Chain of Prostaglandin G/H synthase 1 (Homo sapiens) (P23219 whole entry): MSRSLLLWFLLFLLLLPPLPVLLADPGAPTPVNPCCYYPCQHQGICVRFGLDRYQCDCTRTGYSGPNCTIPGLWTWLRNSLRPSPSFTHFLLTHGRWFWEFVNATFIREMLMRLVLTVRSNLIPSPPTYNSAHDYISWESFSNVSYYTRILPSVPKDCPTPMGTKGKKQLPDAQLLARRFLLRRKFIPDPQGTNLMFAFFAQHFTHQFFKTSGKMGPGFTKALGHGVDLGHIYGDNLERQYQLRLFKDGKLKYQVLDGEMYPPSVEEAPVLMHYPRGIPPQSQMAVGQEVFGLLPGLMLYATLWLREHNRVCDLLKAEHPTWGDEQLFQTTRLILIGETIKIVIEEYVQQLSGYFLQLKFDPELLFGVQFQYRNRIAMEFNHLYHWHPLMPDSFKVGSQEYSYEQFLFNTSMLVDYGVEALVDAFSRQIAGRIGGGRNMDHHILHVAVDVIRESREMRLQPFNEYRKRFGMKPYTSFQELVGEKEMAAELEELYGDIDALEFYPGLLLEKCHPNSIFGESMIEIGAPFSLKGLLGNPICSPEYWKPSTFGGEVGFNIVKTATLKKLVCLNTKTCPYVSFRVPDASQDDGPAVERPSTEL
Chain of MAO-A (P21396 whole entry): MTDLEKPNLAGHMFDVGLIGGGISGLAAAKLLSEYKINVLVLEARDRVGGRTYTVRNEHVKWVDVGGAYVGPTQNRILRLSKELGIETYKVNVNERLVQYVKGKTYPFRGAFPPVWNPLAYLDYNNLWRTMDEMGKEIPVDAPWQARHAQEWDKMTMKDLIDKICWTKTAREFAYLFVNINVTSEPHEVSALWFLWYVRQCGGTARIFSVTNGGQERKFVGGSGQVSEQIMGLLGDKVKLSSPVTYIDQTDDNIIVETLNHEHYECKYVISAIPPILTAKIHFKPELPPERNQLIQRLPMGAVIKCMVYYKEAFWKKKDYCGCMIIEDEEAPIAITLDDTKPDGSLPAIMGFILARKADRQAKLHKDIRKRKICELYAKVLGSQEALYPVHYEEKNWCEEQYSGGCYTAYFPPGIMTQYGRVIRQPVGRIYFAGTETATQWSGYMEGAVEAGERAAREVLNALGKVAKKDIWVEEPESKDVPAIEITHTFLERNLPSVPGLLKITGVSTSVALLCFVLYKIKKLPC
Chain of Potassium voltage-gated channel subfamily V member 1 (Rattus norvegicus) (P97557 whole entry): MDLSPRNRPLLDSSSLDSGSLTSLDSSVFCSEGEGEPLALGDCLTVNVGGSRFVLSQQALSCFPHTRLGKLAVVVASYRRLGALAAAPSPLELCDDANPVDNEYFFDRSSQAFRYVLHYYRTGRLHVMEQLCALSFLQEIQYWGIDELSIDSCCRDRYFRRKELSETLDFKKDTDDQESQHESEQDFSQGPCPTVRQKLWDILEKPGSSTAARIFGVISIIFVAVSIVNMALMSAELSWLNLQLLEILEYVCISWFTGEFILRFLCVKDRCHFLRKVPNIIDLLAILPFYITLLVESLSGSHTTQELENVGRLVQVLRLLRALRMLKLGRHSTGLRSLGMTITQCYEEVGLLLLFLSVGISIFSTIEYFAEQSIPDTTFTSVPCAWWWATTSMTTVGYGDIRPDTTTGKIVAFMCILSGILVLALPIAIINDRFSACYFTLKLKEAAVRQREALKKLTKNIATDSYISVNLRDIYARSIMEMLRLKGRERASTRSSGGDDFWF
Chain of Alpha-1A adrenergic receptor (Homo sapiens) (P35348 whole entry): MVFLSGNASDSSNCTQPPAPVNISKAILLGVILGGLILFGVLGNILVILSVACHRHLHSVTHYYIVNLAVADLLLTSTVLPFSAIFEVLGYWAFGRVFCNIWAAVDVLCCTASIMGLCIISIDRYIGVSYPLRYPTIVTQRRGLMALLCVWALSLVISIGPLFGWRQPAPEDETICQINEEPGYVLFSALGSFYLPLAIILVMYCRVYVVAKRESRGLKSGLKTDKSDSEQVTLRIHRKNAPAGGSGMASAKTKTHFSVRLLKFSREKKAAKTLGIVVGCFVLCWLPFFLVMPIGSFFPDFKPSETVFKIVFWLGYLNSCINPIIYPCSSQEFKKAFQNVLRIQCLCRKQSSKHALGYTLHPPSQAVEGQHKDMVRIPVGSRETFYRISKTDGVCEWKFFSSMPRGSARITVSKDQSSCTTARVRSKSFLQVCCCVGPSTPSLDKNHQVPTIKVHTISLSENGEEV

Consider `Cc1c(NC(=O)COc2ccc(Cl)cc2C(=O)c2cc(F)cc(C(F)(F)F)c2)ccc(C(=O)O)c1F` [BI 2540], for which the IC50 in series [1] is 12 nM (active); in series [2], 0.76 nM (active); in series [3] it was 2.6 nM (active). Also, the residual activity in series [4] was 90%; in series [5] it was 125%; in series [6], 110%; in series [7] it was 84%; in [8], 103%; in series [9], 94%. For the same compound, the residual activity in series [10] was 110%; in series [11], 103%; in series [12], 100%; in series [13], 82%; in [14] it was 110%; in [15] it was 97%. Moreover, the residual activity was 79% in [16]; 105% in series [17]; 101% in [18]; 96% in series [19]; 127% in [20]; 100% in series [22]. In addition, the residual activity is 108% in [23]; 100% in series [24]; 96% in [25]; 92% in series [26]; 78% in series [27]; 113% in series [28]. For the same compound, the residual activity in series [29] was 103%; in series [30], 96%; in series [31], 111%; in series [32], 103%; in series [33] it was 88%; in [34], 113%. The residual activity is 111% in [35]; 101% in series [36]; 99% in series [37]; 98% in [38]; 87% in series [39]; 102% in [40]. Also, the residual activity in series [41] was 103%; in [42], 93%; in [43] it was 110%; in [44], 107%. Further, the activity at 10 µM in series [21] was 96% (not active); on hERG (KCNH2), 94% (not active); on MAO-A it was 104% (not active).

For the compound `CC(C)(C#Cc1ccc(NC(=O)COc2ccccc2C(=O)c2ccccc2)c(Cl)c1)C(=O)O` [BI 2439], the IC50 in [1] was 5050 nM (not active).
